Data set [1] can be described thus: Inhibition of yeast glyoxalase 1. Details: species or system Saccharomyces cerevisiae.
The target of data set [2] is Hydroxyacylglutathione hydrolase, mitochondrial (Bos taurus, UniProt Q3B7M2). The data set is described as follows: Inhibition of bovine liver glyoxalase 2.
Data set [3] can be described thus: Solubility of compound. Type of data set: physicochemical.
For data set [4], the target named is T1, Lactoylglutathione lyase (Homo sapiens, UniProt Q04760). The data set is described as follows: Inhibition of 6-His tagged recombinant human glyoxalase 1 transfected in Escherichia coli BL21 (DE3) assessed as S-D-lactoylglutathione formation by spectrophotometer.
T1 sequence (Q04760 whole entry): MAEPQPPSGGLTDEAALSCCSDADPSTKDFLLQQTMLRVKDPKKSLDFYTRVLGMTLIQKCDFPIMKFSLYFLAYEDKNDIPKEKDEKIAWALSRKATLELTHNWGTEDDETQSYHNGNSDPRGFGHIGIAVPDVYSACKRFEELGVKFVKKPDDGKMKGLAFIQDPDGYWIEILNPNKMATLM
Data set [5] deals with T1, Lactoylglutathione lyase. The data set is described as follows: Inhibition of human glyoxalase 1.

Molecules are shown by their SMILES. Values after ≈ are worked out from the molar mass of the structure shown.

`O=C(O)CNC(=O)C(CSC(=O)N(O)c1ccc(Br)cc1)NC(=O)CCC(NCCC(=O)OCCOCCOCCOCCNC(=O)CCCCCCC(=O)NCCCOCCOCCOCCCNC(=O)CCCCCCC(=O)NCCOCCOCCOCCOC(=O)CCNC(CCC(=O)NC(CSC(=O)N(O)c1ccc(Br)cc1)C(=O)NCC(=O)O)C(=O)O)C(=O)O` (stereo unspecified): the Ki in data set [1] was determined as 6.9 µM; in data set [2] it was 0.138 µM; at Lactoylglutathione lyase [4], 0.001 µM. The compound further gave a solubility in data set [3] of 26 mg/mL (≈ 12.8 mM).

Consider `O=C(O)CNC(=O)C(CSC(=O)N(O)c1ccc(Br)cc1)NC(=O)CCC(NCCC(=O)OCCNC(=O)CCNC(=O)CC(=O)NCCNC(=O)CC(=O)NCCC(=O)NCCOC(=O)CCNC(CCC(=O)NC(CSC(=O)N(O)c1ccc(Br)cc1)C(=O)NCC(=O)O)C(=O)O)C(=O)O` (stereo unspecified), for which the Ki in data set [1] stood at 3.7 µM; in data set [2], 0.081 µM; at Lactoylglutathione lyase [4] it was 0.0003 µM. This compound registered a solubility in data set [3] of 32 mg/mL (≈ 19.9 mM).

`NCCC(=O)NC(CCC(=O)NC(CSC(=O)N(O)c1ccc(Cl)cc1)C(=O)NCC(=O)O)C(=O)O` (stereo unspecified): the inhibition constant Ki on Lactoylglutathione lyase [5] was found to be 0.33 µM.

With `CC(=O)CNC(CCC(=O)NC(CSC(=O)N(O)c1ccc(Cl)cc1)C(=O)NCC(=O)O)C(=O)O` (stereo unspecified), the affinity at Lactoylglutathione lyase [5] corresponds to a Ki of 0.13 µM.

For the compound `CCOC(=O)CCNC(CCC(=O)NC(CSC(=O)N(O)c1ccc(Cl)cc1)C(=O)NCC(=O)O)C(=O)O` (stereo unspecified), the Ki on Lactoylglutathione lyase [5] was 0.046 µM.

One may read the Ki as the dissociation constant of the complex between target and ligand, obtained from inhibition or displacement. Usually solubility stands for the dissolved amount per volume that the medium holds. Read a high solubility as much dissolved substance.

(Values after ChEMBL document CHEMBL3627636, “Novel bivalent inhibitors with sub-nanomolar affinities towards human glyoxalase I” (Bioorg Med Chem Lett, 2015).)
